A value given as a limit tells only on which side of the number the result lay.

The target of the experiment is EBI2 (Homo sapiens, UniProt P32249). The experiment in a line: Cell-based luminescent assay (EBI2 modulation). To be noted: cell-based luminescence; 7a,25-OHC final assay concentration 80 nM; 60 minutes incubation; read-out: IC50. The procedure, abridged: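 Cells plated overnight at 37° C, then exposed to compound at 4-5 uM final with 80 nM 7a,25-OHC agonist for 60 min at 37° C. Luminescence read after 60 min detection at 25° C in the dark; values normalized to neutral and stimulator controls and plate-pattern corrected.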
Chain of EBI2 (P32249 whole entry): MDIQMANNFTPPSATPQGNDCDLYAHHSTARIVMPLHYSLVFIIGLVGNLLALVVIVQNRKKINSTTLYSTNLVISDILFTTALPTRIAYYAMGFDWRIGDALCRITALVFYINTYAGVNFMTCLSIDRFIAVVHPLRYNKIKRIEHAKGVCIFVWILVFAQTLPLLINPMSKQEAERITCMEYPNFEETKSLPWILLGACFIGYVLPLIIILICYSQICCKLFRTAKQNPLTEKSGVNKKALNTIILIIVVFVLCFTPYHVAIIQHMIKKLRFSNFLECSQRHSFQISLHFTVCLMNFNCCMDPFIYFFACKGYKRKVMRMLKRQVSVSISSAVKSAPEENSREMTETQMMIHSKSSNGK
As to `COC(=O)c1cccc(C(=O)N2CCN(C(=O)c3cc4cc(Cl)ccc4[nH]3)CC2)c1` [Compound C363, methyl 3-({4-[(5-chloroindol-2-yl)carbonyl]piperazinyl}carbonyl)benzoate], the IC50 fell in the range of 100 to 500 nM. For `O=C(/C=C/c1ccccc1)N1CCN(Cc2cccc(Cl)c2)CC1` [Compound C365, (2E)-1-{4-[(3-chlorophenyl)methyl]piperazinyl}-3-phenylprop-2-en-1-one], the IC50 was less than 100 nM. In the case of `O=C(c1ccc(Cl)cc1)N1CCN(C(=O)c2cc3ccc(F)cc3[nH]2)CC1` [Compound C366, 4-[(4-chlorophenyl)carbonyl]piperazinyl 6-fluoroindol-2-yl ketone], the IC50 is 100 to 500 nM.

`O=C(/C=C/c1ccc(F)cc1)N1CCN(S(=O)(=O)c2cccs2)CC1` [Compound C367, (2E)-3-(4-fluorophenyl)-1-[4-(2-thienylsulfonyl)piperazinyl]prop-2-en-1-one]: the IC50 was less than 100 nM. As for `CCCCN1CCN(C(=O)c2cc3cc(Cl)ccc3[nH]2)CC1` [Compound C368, 4-butylpiperazinyl 5-chloroindol-2-yl ketone], the 50% inhibitory concentration (IC50) was less than 100 nM.

Consider `O=C(C#Cc1ccc(Cl)cc1)N1CCN(Cc2ccc(F)cc2)CC1` [Compound C369, 3-(4-chlorophenyl)-1-{4-[(4-fluorophenyl)methyl]piperazinyl}prop-2-yn-1-one], for which the IC50 was less than 100 nM. On to `O=C(c1cc2cc(Br)ccc2[nH]1)N1CCN(Cc2ccc(C(F)(F)F)cc2)CC1` [Compound C371, 5-bromoindol-2-yl 4-{[4-(trifluoromethyl)phenyl]methyl}piperazinyl ketone], for which the IC50 was less than 100 nM. Under `COc1ccc(CN2CCN(C(=O)C#Cc3ccc(Cl)cc3)CC2)cc1` [Compound C372, 3-(4-chlorophenyl)-1-{4-[(4-methoxyphenyl)methyl]piperazinyl}prop-2-yn-1-one] stands less than 100 nM; under `O=C(/C=C/c1ccccc1)N1CCN(Cc2ccccc2Cl)CC1` [Compound C374, (2E)-1-{4-[(2-chlorophenyl)methyl]piperazinyl}-3-phenylprop-2-en-1-one], less than 100 nM; under `O=C(c1ccc(C(F)(F)F)cc1)N1CCN(C(=O)c2cc3ccc(Br)cc3[nH]2)CC1` [Compound C375, 6-bromoindol-2-yl 4-{[4-(trifluoromethyl)phenyl]carbonyl}piperazinyl ketone], 100 to 500 nM.

For `O=C(/C=C/c1ccc(Br)cc1F)N1CCN(S(=O)(=O)c2ccc(Br)cc2)CC1` [Compound C377, (2E)-3-(4-bromo-2-fluorophenyl)-1-{4-[(4-bromophenyl)sulfonyl]piperazinyl}prop-2-en-1-one], the IC50 was less than 100 nM. For the compound `O=C(c1cc2cc(Cl)ccc2[nH]1)N1CCN(C(=O)c2ccc(F)cc2F)CC1` [Compound C378, 4-[(2,4-difluorophenyl)carbonyl]piperazinyl 5-chloroindol-2-yl ketone], the IC50 was less than 100 nM.

On to `O=C(c1cc2sccc2[nH]1)N1CCN(C(c2ccccc2)c2ccccc2)CC1` [Compound C380, 4-(diphenylmethyl)piperazinyl thiopheno[2,3-d]pyrrol-5-yl ketone], for which the 50% inhibitory concentration (IC50) is less than 100 nM. Consider `O=C(c1ccc(Br)cc1)N1CCN(C(=O)c2ccc3ccccc3c2)CC1` [Compound C381, 4-bromophenyl 4-(2-naphthylcarbonyl)piperazinyl ketone], for which the half-inhibitory concentration (IC50) was less than 100 nM.

As to `O=C(c1ccc(B(O)O)cc1)N1CCN(C(=O)c2cc3ccc(Br)cc3[nH]2)CC1` [Compound C382, 4-(4-(6-bromo-1H-indole-2-carbonyl)piperazine-1-carbonyl)phenylboronic acid], the IC50 was less than 100 nM. Under `O=C(C#Cc1ccc(Cl)cc1)N1CCN(Cc2ccc(Cl)cc2)CC1` [Compound C384, 3-(4-chlorophenyl)-1-{4-[(4-chlorophenyl)methyl]piperazinyl}prop-2-yn-1-one] stands less than 100 nM.

Consider `COc1ccc(/C=C/C(=O)N2CCN(S(=O)(=O)c3ccc(C(C)(C)C)cc3)CC2)cc1` [Compound C385, (2E)-1-(4-{[4-(tert-butyl)phenyl]sulfonyl}piperazinyl)-3-(4-methoxyphenyl)prop-2-en-1-one], for which the IC50 is less than 100 nM. For the compound `O=C(c1cc2cc(Cl)ccc2[nH]1)N1CCC(Oc2ccc(C(F)(F)F)cc2)CC1` [Compound C390, 5-chloroindol-2-yl 4-[4-(trifluoromethyl)phenoxy]piperidyl ketone], the IC50 was 100 to 500 nM. As for `O=C(c1ccc(C(F)(F)F)cc1)N1CCN(C(=O)c2cc3ccc(Cl)cc3[nH]2)CC1` [Compound C391, 6-chloroindol-2-yl 4-{[4-(trifluoromethyl)phenyl]carbonyl}piperazinyl ketone], the IC50 was less than 100 nM. Under `CC(C)CN1CCN(C(=O)/C=C/c2ccccc2)CC1` [Compound C392, (2E)-1-[4-(methylpropyl)piperzinyl]-3-phenylprop-2-en-1-one] stands less than 100 nM; under `N#Cc1cccc(C(=O)N2CCN(C(=O)c3cc4cc(Cl)ccc4[nH]3)CC2)c1` [Compound C395, 3-({4-[(5-chloroindol-2-yl)carbonyl]piperazinyl}carbonyl)benzenecarbonitrile], less than 100 nM; under `O=C(Nc1cccc(Cl)c1)C1CCN(C(=O)c2cc3cc(Cl)ccc3[nH]2)CC1` [Compound C396, {1-[(5-chloroindol-2-yl)carbonyl](4-piperidyl)}-N-(3-chlorophenyl)carboxamide], less than 100 nM.

On to `O=Cc1ccc(C(=O)N2CCN(C(=O)c3cc4cc(Cl)ccc4[nH]3)CC2)cc1` [Compound C397, 4-({4-[(5-chloroindol-2-yl)carbonyl]piperazinyl}carbonyl)benzaldehyde], for which the 50% inhibitory concentration (IC50) was less than 100 nM.

Consider `O=C(C#Cc1ccc(Cl)cc1)N1CCN(C(=O)c2ccc(F)cc2C(F)(F)F)CC1` [Compound C399, 3-(4-chlorophenyl)-1-(4-{[4-fluoro-2-(trifluoromethyl)phenyl]carbonyl}piperazinyl)prop-2-yn-1-one], for which the IC50 was less than 100 nM. With `Cc1cccc(N2CCN(C(=O)c3cc4cc(Cl)ccc4[nH]3)CC2)c1C` [Compound C400, 4-(2,3-dimethylphenyl)piperazinyl 5-chloroindol-2-yl ketone], the IC50 was less than 100 nM. `O=C(C#Cc1ccc(Br)cc1)N1CCN(Cc2ccc(F)cc2)CC1` [Compound C401, 3-(4-bromophenyl)-1-{4-[(4-fluorophenyl)methyl]piperazinyl}prop-2-yn-1-one]: the IC50 was less than 100 nM.

On to `O=C(c1cc2cc(Cl)ccc2[nH]1)N1CCN(Cc2ccc(C(F)(F)F)c(F)c2)CC1` [Compound C402, 5-chloroindol-2-yl 4-{[3-fluoro-4-(trifluoromethyl)phenyl]methyl}piperazinyl ketone], for which the IC50 was less than 100 nM. Under `O=C(c1cc2cc(Cl)ccc2[nH]1)N1CCN(Cc2cccc(-c3ccccc3)c2)CC1` [Compound C403, 5-chloroindol-2-yl 4-[(3-phenylphenyl)methyl]piperazinyl ketone] stands less than 100 nM; under `O=C(/C=C/c1ccc(Br)cc1F)N1CCN(S(=O)(=O)c2ccccc2)CC1` [Compound C404, (2E)-3-(4-bromo-2-fluorophenyl)-1-[4-(phenylsulfonyl)piperazinyl]prop-2-en-1-one], less than 100 nM.

The IC50 is the concentration at which inhibition is half-maximal.

Source of the values: patent US9776979B2, “EBI2 modulators” (Sanford-Burnham Medical Research Institute, priority 2013, dated 2017).
